In brackets after ≈: the same amount, converted by molar mass. Marks after values point to notes of the source that are not given here.
How the values were obtained:
[1] = test system: human skin; assay: Transepidermal water loss (TEWL) of human skin in vitro, reversibility; details: for TEWL 1 h after the sample had been removed / TEWL 4 h after the sample had been removed / TEWL 8 h after the sample had been removed / TEWL 12 h after the sample had been removed / TEWL 24 h after the sample had been removed: 24-h application of 1% enhancer (1% Azone, 5% SDS) in 60% PG; for TEWL 1 h after the sample had been removed / TEWL 4 h after the sample had been removed / TEWL 8 h after the sample had been removed / TEWL 12 h after the sample had been removed / TEWL 24 h after the sample had been removed / TEWL before sample application (baseline): mean ± SEM; for reversibility of TEWL increase: after 24-h application, followed 24 h after removal
Source text: (§1) We further investigated the direct effects of the selected enhancers on the skin barrier assessed by TEWL and the electrical impedance of human skin in vitro. TEWL is a method commonly used in dermatology[38] to study, for example, the irritant potential of chemicals, skin barrier recovery, or effect of topical formulations, and permeation enhancers[17],[21],[41]–[44]. Electrical impedance measures the opposition of the skin to alternating electrical current and is inversely proportional to the flux of ions. Thus, increased TEWL or decreased impedance indicates a barrier impairment[45],[46]. Electrical impedance or conductance measurements have been used to screen new enhancers or assess the irritation potential of compounds[13],[15],[17],[21],[32],[44],[47]–[50]. Both TEWL and impedance can distinguish between reversible and irreversible effects of enhancers on skin permeability[17],[21],[40],[44],[51].
(§2) Human skin was mounted in Franz diffusion cells in the same way as for the permeation studies. After 1-h equilibration, basal TEWL and impedance values were recorded. Then, 1% enhancer in 60% PG, 60% PG as a negative control, 1% Azone in 60% PG, or 5% SDS in 60% PG as positive (irreversible) controls was applied on the skin (100 µl/cm^2) for 24 h. The residual sample was washed with PBS and gently blotted dry. At 1, 4, 8, 12, and 24 h after sample removal, TEWL, and impedance values were recorded. TEWL was measured using AquaFlux AF 200 (Biox Systems Ltd, London, UK), employing the condenser-chamber measurement method at 26 ± 1.0 °C and 43 ± 3% relative air humidity. Electrical impedance was measured by LCR meter 4080 (Conrad electronic, Hirschau, Germany, measuring range 20 Ω–10 MΩ, error at kΩ values < 0.5%) operated in parallel mode with an alternating frequency of 120 Hz, which was also used in our previous work[21],[44].
(§3) Samples were removed from the skin after 24 h, and TEWL and impedance values were recorded in predetermined time intervals (1, 4, 8, 12, and 24 h after sample removal). Data are presented as the means ± SEM; n ≥ 3. * statistically significant difference compared to the baseline value before the sample application at p < 0.05. ^+ statistically significant compared to the value 1 h after the sample removal at p < 0.05.^ ≠ statistically significant compared to the control (60% PG without enhancer) at the same time point, at p < 0.05.

[2] = test system: human skin; assay: Electrical impedance of human skin in vitro, reversibility; details: for impedance 1 h after the sample had been removed / impedance 4 h after the sample had been removed / impedance 8 h after the sample had been removed / impedance 12 h after the sample had been removed / impedance 24 h after the sample had been removed: 24-h application of 1% enhancer (1% Azone, 5% SDS) in 60% PG; for impedance 1 h after the sample had been removed / impedance 4 h after the sample had been removed / impedance 8 h after the sample had been removed / impedance 12 h after the sample had been removed / impedance 24 h after the sample had been removed / impedance before sample application (baseline): mean ± SEM; for recovery of skin impedance after sample removal: after 24-h application, followed 24 h after removal
Source text: as §1, §2, §3

[3] = Solubility of model drugs (donor sample, PBS); details: for solubility: pH 7.4
Protocol: (§4) Donor samples for reversibility and infrared studies contained 1% enhancer in 60% PG. All samples were thoroughly mixed, incubated at 32 °C for 24 h, and, if needed, carefully resuspended before applying on the skin. The effects of the studied enhancers on the solubility of model drugs were assessed as described previously.
(§5) The permeation-enhancing potencies of the prepared compounds were evaluated on human skin in Franz diffusion cells. Human skin was slowly thawed, cut into 2 × 2 cm pieces, fixed in Teflon holders with 1-cm^2 circular permeation areas, and mounted into Franz cells epidermal side up. The acceptor compartment (15.9 ± 0.1 ml) was filled with phosphate-buffered saline at pH 7.4 with 0.005% gentamicin (PBS) and stirred at 32 °C throughout the experiment. The skin integrity was checked by electrical impedance (any skin sample with the impedance < 10 kΩ was excluded). Then, 100 µl of a donor sample (infinite dose) was applied to the skin and covered with a glass slide. Acceptor phase samples (300 µl) were collected at predetermined time intervals for 48 h, to reach steady-state and were replaced by the same volume of fresh PBS. […] The drug concentrations were measured by HPLC (see supplementary data).

[4] = test system: human skin; details: 5% DC in PBS/isopropyl alcohol 9:1 on human skin; cited from earlier work
[5] = Diclofenac permeation through human skin in Franz diffusion cells with co-applied enhancer; format: in vitro ADME; details: pH 7.4; 3% DC in 60% PG, no enhancer; human skin in vitro; read-out: permeability coefficient of DC (converted)
Protocol: as §4, §5
(§6) The flux of the model drug through the skin Jss (µg/cm^2/h) was calculated from the linear region of this plot. The enhancement ratio (ER) was calculated as the ratio of flux with and without an enhancer.
(§7) After the permeation experiment, the cells were dismounted, the skin was carefully washed with PBS, and the permeation area of the skin (1 cm^2) was punched off. After heating the skin fragments to 80 °C for 1 min, the epidermis (E) was peeled off the dermis (D), individually weighed and extracted by 1 and 2 ml, respectively, of an extraction solvent (identical to the mobile phase for the drug HPLC analysis, see supplementary data) for 24 h. The drug concentration was measured by HPLC (see supplementary data).

[6] = test system: rat skin; details: […] DC in ethanol/glycerol/water 6:1:3 on rat skin; cited from earlier work
[7] = test system: human skin; assay: Theophylline permeation through human skin in Franz diffusion cells with co-applied enhancer; format: in vitro ADME; details: for CDERMIS, theophylline concentration in dermis / CEPIDERMIS, theophylline concentration in epidermis / ER, enhancement ratio of theophylline flux (fold increase in flux over control): 1% enhancer co-applied with 5% TH in 60% PG; for CDERMIS, theophylline concentration in dermis / CEPIDERMIS, theophylline concentration in epidermis: after 48 h permeation, mean ± SEM; for ER, enhancement ratio of theophylline flux (fold increase in flux over control): human skin in vitro
Protocol: The prepared enhancers were applied at 1% in 60% aqueous propylene glycol (PG) to human skin in vitro; 60% PG was used as a negative control. PG was selected for its synergy with amphiphilic enhancers. Each model drug was co-applied with the enhancer at infinite dose.
as §4, §5, §6, §7

[8] = test system: human skin; assay: Diclofenac permeation through human skin in Franz diffusion cells with co-applied enhancer; format: in vitro ADME; details: 1% enhancer co-applied with 3% DC in 60% PG; for CDERMIS, diclofenac concentration in dermis / CEPIDERMIS, diclofenac concentration in epidermis: after 48 h permeation, mean ± SEM; for ER, enhancement ratio of diclofenac flux: human skin in vitro
Protocol: as §4, §5, §6, §7

[9] = DC: free acid form; quoted without reference; cited from earlier work

| Compound | CDERMIS, theophylline concentration in dermis [7] [µg/mg] | CEPIDERMIS, theophylline concentration in epidermis [7] [µg/mg] | ER, enhancement ratio of theophylline flux (fold increase in flux over control) [7] | CDERMIS, diclofenac concentration in dermis [8] [µg/mg] | CEPIDERMIS, diclofenac concentration in epidermis [8] [µg/mg] | ER, enhancement ratio of diclofenac flux [8] | also measured |
| --- | --- | --- | --- | --- | --- | --- | --- |
| CCCCCCCCCCCCN1CCCCCC1=O [Azone, N-dodecylazepan-2-one, reference compound] | – | – | – | – | – | – | TEWL 1 h after the sample had been removed [1]: 67.7 ± 1.3*^≠ g/m^2/h; TEWL 4 h after the sample had been removed [1]: 60.7 ± 1.7*^≠ g/m^2/h; TEWL 8 h after the sample had been removed [1]: 51.9 ± 1.6*^≠+ g/m^2/h; TEWL 12 h after the sample had been removed [1]: 48.8 ± 2.3*^≠+ g/m^2/h; TEWL 24 h after the sample had been removed [1]: 48.3 ± 1.4*^≠+ g/m^2/h; reversibility of TEWL increase [1]: lack of TEWL and impedance reversibility; TEWL before sample application (baseline) [1]: 28.2 ± 3.6 g/m^2/h; impedance 1 h after the sample had been removed [2]: 2.6 ± 0.4* kΩ×cm^2; impedance 4 h after the sample had been removed [2]: 7.8 ± 0.4*^≠ kΩ×cm^2; impedance 8 h after the sample had been removed [2]: 11.2 ± 0.2*^≠+ kΩ×cm^2; impedance 12 h after the sample had been removed [2]: 12.2 ± 0.4*^≠+ kΩ×cm^2; impedance 24 h after the sample had been removed [2]: 12.4 ± 0.8*^≠+ kΩ×cm^2; recovery of skin impedance after sample removal [2]: lack of TEWL and impedance reversibility; impedance before sample application (baseline) [2]: 25.1 ± 2.0 kΩ×cm^2 |
| O=C(O)Cc1ccccc1Nc1c(Cl)cccc1Cl [DC, diclofenac] | – | – | – | – | – | – | solubility ([3]; phosphate-buffered saline): 9450 ± 150 µg/mL (≈ 31.9 mM); permeability coefficient of DC [4]: 2.2 × 10^–5 cm/h; Papp at 48 h, 3 % [5]: 0.0144 ×10⁻⁶ cm/s; permeability coefficient of DC [6]: 11.0 × 10^–5 cm/h |
| CCCCCCCCCCCCOC(=O)C1CC(O)CN1C(C)=O (stereo not drawn) [Hyp2] | 0.20 ± 0.03 | 2.87 ± 0.45 | 10 | 0.90 ± 0.08 | 9.22 ± 0.32 | 3 | – |
| CCCCCCCCCCCCOC(=O)C1CC(O)CN1C(=O)CC (stereo not drawn) [Hyp3] | 0.25 ± 0.07 | 3.64 ± 0.85 | – | 0.97 ± 0.07 | 9.18 ± 0.62 | 4 | ER of epidermal TH concentration ([7]; 1% enhancer with 5% TH in 60% PG, over control): 1.9 |
| CCCCCCCCCCCCOC(=O)C1CC(O)CN1C(=O)CCC (stereo not drawn) [Hyp4] | 0.39 ± 0.07 | 1.96 ± 0.56 | 16 | 1.01 ± 0.05 | 8.99 ± 1.23 | 4 | – |
| CCCCCCCCCCCCOC(=O)C1CC(O)CN1C(=O)CCCC (stereo not drawn) [Hyp5] | 0.23 ± 0.03 | 1.45 ± 0.41 | ~19 | 1.02 ± 0.11 | 9.84 ± 1.22 | 5 | – |
| CCCCCCCCCCCCOC(=O)C1CCC(=O)N1C(C)=O (stereo not drawn) [PCA2] | 0.22 ± 0.03 | 2.33 ± 0.26 | 12 | – | – | – | – |
| CCCCCCCCCCCCOC(=O)C1CCC(=O)N1C(=O)CC (stereo not drawn) [PCA3] | 0.28 ± 0.04 | 2.99 ± 0.37 | 9 | – | – | – | – |
| CCCCCCCCCCCCOC(=O)C1CCC(=O)N1C(=O)CCC (stereo not drawn) [PCA4] | 0.30 ± 0.14 | 2.53 ± 0.23 | 5 | – | – | – | – |
| CCCCCCCCCCCCOC(=O)C1CCC(=O)N1C(=O)CCCC (stereo not drawn) [PCA5] | 0.23 ± 0.07 | 2.14 ± 0.44 | 5 | – | – | – | – |
| CCCCCCCCCCCCOC(=O)C1CCCN1C(=O)CCCC (stereo not drawn) [Pro5] | 0.26 ± 0.02 | 0.83 ± 0.12 | 24 | 1.30 ± 0.25 | 8.51 ± 1.39 | – | – |
| CCCCCCCCCCCCOC(=O)C1CCCN1C(=O)CCCCC (stereo not drawn) [Pro6] | 0.22 ± 0.03 | 1.14 ± 0.19 | 16 | 1.44 ± 0.31 | 10.26 ± 0.38 | – | – |
| CCCCCCCCCCCCOC(=O)C1CCCN1C(=O)CCCCCC (stereo not drawn) [Pro7] | 0.26 ± 0.04 | 0.95 ± 0.09 | 15 | 1.30 ± 0.75 | 8.63 ± 3.11 | 5 | – |
| CCCCCCCCCCCCOC(=O)C1CCCN1C(=O)CCCCCCC (stereo not drawn) [Pro8] | 0.19 ± 0.02 | 0.89 ± 0.25 | 9 | 1.08 ± 0.28 | 10.20 ± 0.96 | 3 | – |
| CCCCCCCCCCCCOS(=O)(=O)[O-].[Na+] [SDS, sodium dodecyl sulfate, reference compound] | – | – | – | – | – | – | TEWL 1 h after the sample had been removed [1]: 47.3 ± 2.2*^≠ g/m^2/h; TEWL 4 h after the sample had been removed [1]: 45.8 ± 4.4* g/m^2/h; TEWL 8 h after the sample had been removed [1]: 38.7 ± 3.1* g/m^2/h; TEWL 12 h after the sample had been removed [1]: 38.2 ± 2.6* g/m^2/h; TEWL 24 h after the sample had been removed [1]: 38.0 ± 2.3* g/m^2/h; reversibility of TEWL increase [1]: lack of TEWL and impedance reversibility; TEWL before sample application (baseline) [1]: 26.1 ± 2.9 g/m^2/h; impedance 1 h after the sample had been removed [2]: 1.9 ± 0.2* kΩ×cm^2; impedance 4 h after the sample had been removed [2]: 3.8 ± 0.2*^≠ kΩ×cm^2; impedance 8 h after the sample had been removed [2]: 5.0 ± 0.3*^≠ kΩ×cm^2; impedance 12 h after the sample had been removed [2]: 5.6 ± 0.3*^≠ kΩ×cm^2; impedance 24 h after the sample had been removed [2]: 6.4 ± 0.3*^≠ kΩ×cm^2; recovery of skin impedance after sample removal [2]: lack of TEWL and impedance reversibility; impedance before sample application (baseline) [2]: 26.7 ± 0.7 kΩ×cm^2 |
| Cn1c(=O)c2[nH]cnc2n(C)c1=O [TH, theophylline] | – | – | – | – | – | – | logP [9]: ~ 0; solubility at 24 h [3]: ~25000 µg/mL (≈ 139 mM); solubility [3]: 7650 ± 20 µg/mL (≈ 42.5 mM) |

Source: article PMC9663686, “Proline, hydroxyproline, and pyrrolidone carboxylic acid derivatives as highly efficient but reversible transdermal permeation enhancers” (Scientific Reports, 2022)
